Legend:
HIV-1LAI = HIV-1LAI replication reverse transcriptase assay in primary PBM cells; format: cell-based, human immunodeficiency virus type 1
Description: (§1) The cytotoxicity and human immunodeficiency virus type 1 (HIV-1) strain LAI replication assays were performed in freshly explanted primary human peripheral blood mononuclear cells (PBM cells) according to published procedures. The assays were conducted at least in triplicate and treated statistically (if possible). HIV-1LAI (= HIV-1BRU = LAV-1) was assayed in primary human peripheral blood lymphocyte (PBL) cells in the presence of a drug being evaluated. The parameter for antiviral activity was a reduction in reverse transcriptase (RT) activity in the cell supernatant after Triton X–100-mediated lysis of released virions, as measured using [5α-^3H]dTTP (5α-tritiated thymidine 5′-triphosphate) incorporation into poly(rA)•poly(dT) directed by the primed RNA template poly(rA)•oligo(dT). […] The detailed assay methodology was reported by Schinazi et al. as based on an older assay system of Spira et al.. The experiments were conducted in triplicate and treated statistically using regression curve analysis (r^2 coefficient of determination). The RT inhibitor AZT (zidovudine, 3′-azido-3′-deoxythymidine; RETROVIR™) served as a positive control. Cytotoxicity on PBL and the other cells (CCRF−CEM, Vero) exerted by the test compounds was determined as described by Stuyver et al. by application of the CellTiter 96® AQueous One Solution Cell Proliferation Assay (Promega Corp., Madison, WI, USA). Briefly, the phenazine ethosulfate (PES)-coupled reduction of the tetrazolium salt 3-(4,5-dimethylthiazol-2-yl)-5-(3-carboxymethoxyphenyl)-2-(4-sulfophenyl)-2H-tetrazolium (MTS) to a purple, water-soluble formazan by living, undamaged cells was measured.

[1] = Cytotoxicity (CellTiter 96 AQueous One, MTS); format: cell-based; settings: human; PBM cells
Description: (§2) The cytotoxicity and human immunodeficiency virus type 1 (HIV-1) strain LAI replication assays were performed in freshly explanted primary human peripheral blood mononuclear cells (PBM cells) according to published procedures. The assays were conducted at least in triplicate and treated statistically (if possible). HIV-1LAI (= HIV-1BRU = LAV-1) was assayed in primary human peripheral blood lymphocyte (PBL) cells in the presence of a drug being evaluated. The parameter for antiviral activity was a reduction in reverse transcriptase (RT) activity in the cell supernatant after Triton X–100-mediated lysis of released virions, as measured using [5α-^3H]dTTP (5α-tritiated thymidine 5′-triphosphate) incorporation into poly(rA)•poly(dT) directed by the primed RNA template poly(rA)•oligo(dT). […] Cytotoxicity on PBL and the other cells (CCRF−CEM, Vero) exerted by the test compounds was determined as described by Stuyver et al. by application of the CellTiter 96® AQueous One Solution Cell Proliferation Assay (Promega Corp., Madison, WI, USA). Briefly, the phenazine ethosulfate (PES)-coupled reduction of the tetrazolium salt 3-(4,5-dimethylthiazol-2-yl)-5-(3-carboxymethoxyphenyl)-2-(4-sulfophenyl)-2H-tetrazolium (MTS) to a purple, water-soluble formazan by living, undamaged cells was measured.

[2] = Cytotoxicity (CellTiter 96 AQueous One, MTS); format: cell-based, human; settings: human; CCRF−CEM cells
Description: as §1

[3] = Cytotoxicity (CellTiter 96 AQueous One, MTS); format: cell-based, African green monkey (grivet) Chlorocebus aethiops; settings: African green monkey (Chlorocebus aethiops), Vero cells
Description: as §2

## Cc1cn([C@H]2C[C@H](N=[N+]=[N-])[C@@H](CO)O2)c(=O)[nH]c1=O [AZT, 3′-azido-3′-deoxythymidine, reference compound]
HIV-1LAI; Human immunodeficiency virus 1, PBMC, primary human PBM cells, reverse transcriptase activity in supernatant, read-out: Anti-HIV-1LAI activity EC50
  EC50: 4.4 ± 1.8 nM
HIV-1LAI; Human immunodeficiency virus 1, PBMC, primary human PBM cells, reverse transcriptase activity in supernatant, read-out: Anti-HIV-1LAI activity EC90
  EC90: 31 ± 15 nM
HIV-1LAI; PBM cells
  SI50, selectivity index CC50/EC50: >22,727
[1]
  CC50: > 100 µM
[2]
  CC50: 14.3 µM
[3]
  CC50: 56 µM
